# Experimental data reported in ChEMBL document CHEMBL1201862, “PubChem BioAssay data set” (2004).
# Active and inactive are the calls of the source.
# Columns and labels:
# [1] = Luminescence-based cell-based high throughput dose response assay to identify activators of the DAF-12 from the parasite S. stercoralis (ssDAF-12).; type: functional
# [2] = molecular target: T1, Oxysterols receptor LXR-beta (Homo sapiens, UniProt P55055); type: functional, cell-based;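 also: Cell-based luminescence dose-response assay of agonist activity at LXR, run as a confirmatory counterscreen to a daf-12 agonist screen; HEK293 cells with Gal4-LXR fusion and GAL4-driven luciferase reporter; agonist potency from rising luciferase signal of a Gal4-LXR reporter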
# T1 sequence (P55055 whole entry): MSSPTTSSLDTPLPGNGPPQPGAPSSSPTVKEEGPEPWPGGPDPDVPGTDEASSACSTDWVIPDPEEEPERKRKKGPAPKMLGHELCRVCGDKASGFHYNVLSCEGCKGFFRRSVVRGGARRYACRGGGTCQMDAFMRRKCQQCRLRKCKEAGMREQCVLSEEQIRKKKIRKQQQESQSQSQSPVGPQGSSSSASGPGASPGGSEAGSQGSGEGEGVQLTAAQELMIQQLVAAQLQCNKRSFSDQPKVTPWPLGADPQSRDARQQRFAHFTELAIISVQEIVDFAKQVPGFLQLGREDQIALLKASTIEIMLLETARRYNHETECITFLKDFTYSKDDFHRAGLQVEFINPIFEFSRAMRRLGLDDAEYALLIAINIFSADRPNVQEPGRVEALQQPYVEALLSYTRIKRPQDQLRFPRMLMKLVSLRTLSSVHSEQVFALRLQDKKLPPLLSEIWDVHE
# [3] = cells
# [4] = molecular target: Melanocortin receptor 4 (Homo sapiens, UniProt P32245); type: functional, cell-based;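 also: Cell-based assay with luminescence read-out, confirmatory dose-response testing for agonist activity of biased ligands at MC4R; human U2OS cells with tagged receptor and beta-arrestin; potency of agonists that increase receptor coupling to beta-arrestin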
# [5] = reduced cellular PGC1a acetyl-lysine signal – cell-based, cherry-picked samples, dose response (AID 720514); type: functional;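 also: potency may reflect raised or lowered acetylation signal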
# [6] = molecular target: T2, fMet-Leu-Phe receptor (Homo sapiens, UniProt P21462); test: formyl peptide receptor binders – dose response (AID 519); type: functional
# T2 sequence (P21462 whole entry): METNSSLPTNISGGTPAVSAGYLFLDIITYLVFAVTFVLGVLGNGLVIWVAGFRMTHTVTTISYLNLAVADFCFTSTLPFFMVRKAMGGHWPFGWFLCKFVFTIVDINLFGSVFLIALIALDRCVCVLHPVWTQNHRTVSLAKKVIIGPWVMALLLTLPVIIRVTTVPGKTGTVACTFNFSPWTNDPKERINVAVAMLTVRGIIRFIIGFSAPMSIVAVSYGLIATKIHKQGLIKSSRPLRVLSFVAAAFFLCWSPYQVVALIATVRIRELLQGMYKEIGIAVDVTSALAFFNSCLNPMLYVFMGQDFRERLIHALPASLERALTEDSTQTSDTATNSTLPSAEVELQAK
# [7] = molecular target: T3, Microphthalmia-associated transcription factor (Homo sapiens, UniProt O75030); test: reducers of TRPM1 reporter luminescence, concentration series – cell-based, SK-MEL-5, cherry-picked, set 3, MITF inhibitor project, dose response (AID 493073); type: functional;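 also: SK-MEL-5 melanoma cells with luciferase driven by the MITF target TRPM1 promoter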
# T3 sequence (O75030 whole entry): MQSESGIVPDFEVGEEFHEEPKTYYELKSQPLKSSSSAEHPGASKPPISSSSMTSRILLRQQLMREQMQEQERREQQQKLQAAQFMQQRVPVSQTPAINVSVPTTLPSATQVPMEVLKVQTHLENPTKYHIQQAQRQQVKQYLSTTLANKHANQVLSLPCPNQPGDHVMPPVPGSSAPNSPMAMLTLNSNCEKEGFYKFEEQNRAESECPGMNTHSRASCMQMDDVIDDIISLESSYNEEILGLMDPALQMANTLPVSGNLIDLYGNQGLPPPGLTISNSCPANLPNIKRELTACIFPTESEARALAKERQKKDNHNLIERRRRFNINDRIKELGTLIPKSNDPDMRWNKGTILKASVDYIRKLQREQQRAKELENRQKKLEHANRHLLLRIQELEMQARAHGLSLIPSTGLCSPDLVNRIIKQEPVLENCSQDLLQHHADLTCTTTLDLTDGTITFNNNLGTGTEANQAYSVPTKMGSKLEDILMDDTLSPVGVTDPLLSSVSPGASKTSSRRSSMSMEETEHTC
# [8] = A549 cell cytotoxicity, dose response, cytotoxicity control, plate reader, cherry-pick, antagonist series (AID 743412); type: functional, cell-based
# [9] = toxicity toward HepG2 liver cells – cell-based, plate reader, cherry-pick, antagonist series, cytotoxicity control, dose response (AID 743416); type: functional
# [10] = blockers of bursicon-stimulated LGR2 cAMP reporter – cell-based, HEK293, CRE-luciferase reporter, cherry pick, set 2, dose response (AID 743343); type: functional;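 also: transfected cells were stimulated with diluted bursicon conditioned medium after compound addition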
# [11] = blockade of melanocortin 4 receptor signaling – cell-based, plate reader, cherry pick, counter-screen for LGR2 antagonist project, dose response (AID 743444); type: functional;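 also: transfected HEK 293 cells stimulated with alpha-MSH peptide; potency of inhibitors of the alpha-MSH evoked signal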
# [12] = viability loss in HEK293 cells – cell-based, plate reader, cherry-picked samples, cytotoxicity control, dose response (AID 743446); type: functional
# [13] = molecular target: Luciferin 4-monooxygenase (Photinus pyralis, UniProt P08659); test: inhibition of purified Photinus pyralis luciferase – biochemical, luminescence, dose response (AID 1891)
# [14] = Luminescence Cell-Based Dose Confirmation HTS to Identify Inhibitors of Platelet Dense Granule Release. [Related pubchem assays: 1663 (Primary HTS), 1678 (Summary of Project)]; type: functional
# [15] = tested on: HEK293; test: EBV LMP1 TES2 canonical NF-kB signalling blockers – cell-based, HEK293, luciferase, cherry-pick, dose response (AID 588343); type: functional; conditions: Homo sapiens
# [16] = molecular target: T4, Protein skinhead-1 (Caenorhabditis elegans, UniProt P34707); type: functional
# T4 sequence (P34707 whole entry): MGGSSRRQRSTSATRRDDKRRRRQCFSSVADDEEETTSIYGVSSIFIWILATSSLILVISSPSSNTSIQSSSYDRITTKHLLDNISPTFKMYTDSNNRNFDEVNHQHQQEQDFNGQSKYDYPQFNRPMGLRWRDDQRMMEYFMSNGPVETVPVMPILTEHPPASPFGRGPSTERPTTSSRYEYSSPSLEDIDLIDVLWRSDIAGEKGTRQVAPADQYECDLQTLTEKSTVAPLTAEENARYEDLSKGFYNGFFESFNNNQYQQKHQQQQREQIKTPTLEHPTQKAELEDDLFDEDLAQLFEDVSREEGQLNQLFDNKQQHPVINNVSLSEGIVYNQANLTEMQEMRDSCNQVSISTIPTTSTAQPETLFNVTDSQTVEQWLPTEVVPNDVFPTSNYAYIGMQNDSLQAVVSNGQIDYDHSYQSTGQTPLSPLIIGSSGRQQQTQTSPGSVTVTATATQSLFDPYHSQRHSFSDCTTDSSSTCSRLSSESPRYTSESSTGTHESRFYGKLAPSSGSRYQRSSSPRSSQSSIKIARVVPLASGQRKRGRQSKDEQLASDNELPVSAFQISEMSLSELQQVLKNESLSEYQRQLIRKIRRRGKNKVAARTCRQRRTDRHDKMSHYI
# [17] = molecular target: T5, Calpain-2 catalytic subunit (Sus scrofa, UniProt P43367); test: m-calpain protease blockers, concentration series – biochemical, fluorogenic peptide substrate, dose response (AID 1420); type: functional
# T5 sequence (P43367 whole entry): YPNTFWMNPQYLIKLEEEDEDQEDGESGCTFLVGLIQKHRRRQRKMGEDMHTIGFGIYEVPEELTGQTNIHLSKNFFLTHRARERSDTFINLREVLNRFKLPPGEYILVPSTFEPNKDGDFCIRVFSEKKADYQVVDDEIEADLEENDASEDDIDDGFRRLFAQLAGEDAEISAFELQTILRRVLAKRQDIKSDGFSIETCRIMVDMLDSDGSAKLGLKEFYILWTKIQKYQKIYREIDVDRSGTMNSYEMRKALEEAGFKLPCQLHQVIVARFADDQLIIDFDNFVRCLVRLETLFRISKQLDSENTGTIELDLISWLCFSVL
# [18] = molecular target: T6, Cytochrome P450 1A2 (Homo sapiens, UniProt P05177);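 also: PubChem cytochrome P450 panel assay, CYP1A2 panel member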
# T6 sequence (P05177 whole entry): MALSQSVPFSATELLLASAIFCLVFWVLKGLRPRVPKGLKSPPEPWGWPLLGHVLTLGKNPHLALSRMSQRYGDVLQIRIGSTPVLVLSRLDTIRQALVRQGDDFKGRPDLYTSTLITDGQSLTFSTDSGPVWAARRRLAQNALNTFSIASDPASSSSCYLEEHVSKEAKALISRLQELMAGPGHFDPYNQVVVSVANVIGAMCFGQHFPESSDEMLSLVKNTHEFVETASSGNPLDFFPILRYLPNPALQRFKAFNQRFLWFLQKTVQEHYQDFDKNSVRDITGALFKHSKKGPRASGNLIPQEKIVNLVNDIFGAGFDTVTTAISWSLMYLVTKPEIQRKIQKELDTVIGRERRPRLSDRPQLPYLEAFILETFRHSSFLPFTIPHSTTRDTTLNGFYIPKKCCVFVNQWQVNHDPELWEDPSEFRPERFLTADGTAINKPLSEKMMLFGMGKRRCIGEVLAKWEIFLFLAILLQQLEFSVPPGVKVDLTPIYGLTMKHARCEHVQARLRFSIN
# [19] = molecular target: Cytochrome P450 2C9 (Homo sapiens, UniProt P11712)
# [20] = general mammalian cell viability loss – activator set, cherry-pick, cytotoxicity control for miR-122 modulator project, dose response (AID 720690); type: functional, cell-based;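 also: HEK293T human cells scored for general mammalian cytotoxicity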
# [21] = activation of miR-122 Renilla sensor silencing – cell-based, Huh7 psiCHECK-miR122, Renilla luciferase, cherry-picked, dose response (AID 651956); type: functional;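 also: huh7 hepatoma cells stably carrying a psiCHECK-2 miR-122 sensor plasmid; renilla luciferase signal reporting endogenous miR-122 activity after 48 h compound exposure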
# [22] = molecular target: Heat shock protein HSP 90-alpha (Homo sapiens, UniProt P07900); type: functional, organism-based
# [23] = tested on: Vero; test: cells; type: functional; conditions: Chlorocebus sabaeus
# [24] = reduction of Shn3 3'UTR-driven luciferase in osteoblasts – cell-based, Clone20 osteoblasts, firefly luciferase, cherry-picked, dose response (AID 624132); type: functional;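 also: firefly luciferase luminescence from reporter carrying the Shn3 3'UTR in osteoblasts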
# [25] = loss of viability in HepG2 cells – cell-based, CellTiter-Glo, cherry-picked, cytotoxicity control for Shn3 inhibitor project, dose response (AID 624134); type: functional
# [26] = non-specific 3'UTR reporter inhibition in Clone20-Shn3RL – cell-based, Renilla luciferase, cherry-picked, counter-screen for Shn3 inhibitor project, dose response (AID 624133); type: functional
# Melanocortin receptor 4, sequence (P32245 whole entry): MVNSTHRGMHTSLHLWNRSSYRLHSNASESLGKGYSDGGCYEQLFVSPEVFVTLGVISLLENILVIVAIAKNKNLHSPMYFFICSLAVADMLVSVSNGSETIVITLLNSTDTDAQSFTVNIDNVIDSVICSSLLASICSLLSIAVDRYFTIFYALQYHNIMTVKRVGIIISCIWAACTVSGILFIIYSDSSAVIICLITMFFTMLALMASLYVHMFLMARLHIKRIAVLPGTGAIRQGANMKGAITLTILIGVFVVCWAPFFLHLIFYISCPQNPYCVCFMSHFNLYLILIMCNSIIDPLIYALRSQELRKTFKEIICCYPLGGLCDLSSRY
# Luciferin 4-monooxygenase, sequence (P08659 whole entry): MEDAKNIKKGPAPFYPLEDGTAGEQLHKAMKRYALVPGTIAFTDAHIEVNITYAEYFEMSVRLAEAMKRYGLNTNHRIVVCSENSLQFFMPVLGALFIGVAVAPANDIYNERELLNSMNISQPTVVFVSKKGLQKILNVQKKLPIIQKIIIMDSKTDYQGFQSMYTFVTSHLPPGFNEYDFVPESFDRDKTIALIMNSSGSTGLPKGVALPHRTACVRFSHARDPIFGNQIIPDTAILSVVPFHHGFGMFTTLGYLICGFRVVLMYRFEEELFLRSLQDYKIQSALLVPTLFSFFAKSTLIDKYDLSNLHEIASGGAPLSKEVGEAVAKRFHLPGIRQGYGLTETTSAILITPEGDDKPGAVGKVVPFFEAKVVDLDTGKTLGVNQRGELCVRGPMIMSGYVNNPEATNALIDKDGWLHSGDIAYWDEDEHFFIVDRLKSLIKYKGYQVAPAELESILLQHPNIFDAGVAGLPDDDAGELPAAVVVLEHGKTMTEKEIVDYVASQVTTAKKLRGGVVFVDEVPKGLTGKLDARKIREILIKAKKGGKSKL
# Cytochrome P450 2C9, sequence (P11712 whole entry): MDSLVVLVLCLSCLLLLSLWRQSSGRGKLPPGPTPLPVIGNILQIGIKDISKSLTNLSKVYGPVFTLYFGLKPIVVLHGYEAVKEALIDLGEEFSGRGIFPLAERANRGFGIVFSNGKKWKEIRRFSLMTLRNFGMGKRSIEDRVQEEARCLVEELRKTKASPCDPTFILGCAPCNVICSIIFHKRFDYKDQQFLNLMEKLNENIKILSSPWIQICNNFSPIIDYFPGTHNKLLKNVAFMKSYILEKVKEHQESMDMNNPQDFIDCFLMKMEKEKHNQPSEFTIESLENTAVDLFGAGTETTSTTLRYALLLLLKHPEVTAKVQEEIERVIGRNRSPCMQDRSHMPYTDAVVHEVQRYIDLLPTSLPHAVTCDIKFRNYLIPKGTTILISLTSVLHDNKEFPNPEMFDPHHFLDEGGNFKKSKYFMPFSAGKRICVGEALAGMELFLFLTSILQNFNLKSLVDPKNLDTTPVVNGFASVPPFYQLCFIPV
structure (smiles),measurement,setting,value
Oc1ccccc1-c1cc(-c2ccccc2)no1,IC50,[1],> 67.5 µM (inactive)
same,EC50,[2],> 67.5 µM (inactive)
same,EC50,[3],> 67.5 µM (inactive)
O=C(Nc1cccc(NC(=S)NC(=O)c2cccs2)c1)c1ccccc1,EC50,[4],> 89.2 µM (inactive)
CN(C)CCCN(C(=O)CCOc1ccccc1)c1nc2ccc(F)cc2s1,AC50,[5],12.8 µM (active)
COc1cc(C2C(C(=O)c3ccc4c(c3)CC(C)O4)=C(O)C(=O)N2CCCn2ccnc2)ccc1O (stereo unspecified),Ki,[6],57.5 µM (inactive)
Cc1cc(C)n(-c2ccc(C(=O)Nc3ccc(C)c(S(=O)(=O)N4CCOCC4)c3)cc2)n1,AC50,[7],4.54 µM (active)
same,AC50,[8],> 52 µM (inactive)
same,AC50,[9],33.8 µM (active)
same,AC50,[10],18.1 µM (active)
same,AC50,[11],13.4 µM (active)
same,AC50,[12],25.4 µM (active)
COc1ccc(-c2nc(-c3cccs3)no2)cc1,EC50,[13],1.59 µM (active)
same,EC50,[14],18.7 µM (active)
same,AC50,[15],1.7 µM (active)
same,IC50,[16],> 100 µM (inactive)
same,AC50,[10],2.18 µM (active)
same,AC50,[11],3.02 µM (active)
same,AC50,[12],> 52 µM (inactive)
CCOc1ccc(NC(=S)NC(=O)/C=C/c2ccc(C)cc2)c([N+](=O)[O-])c1,IC50,[17],> 50 µM (not active)
same,EC50,[4],> 89.2 µM (inactive)
same,AC50,[18],15.8 µM (inconclusive)
same,AC50,[19],3.55 µM (inconclusive)
CCOC(=O)c1c(NC(=O)c2cc(C3CC3)on2)sc2c1CCCC2,Ki,[6],> 66.7 µM (inactive)
CC(=O)n1nc(-c2ccccc2)cc1-c1ccccc1,EC50,[2],> 67.5 µM (inactive)
same,EC50,[3],> 67.5 µM (inactive)
COc1ccccc1CNc1nc(Nc2ccccc2Cl)c2sccc2n1,AC50,[20],2.71 µM (active)
Cc1ccccc1/N=C/C1=C(O)c2ccccc2C1=O,EC50,[13],1.02 µM (active)
same,EC50,[14],3.79 µM (active)
same,AC50,[8],> 52 µM (inactive)
same,AC50,[9],> 52 µM (inactive)
same,AC50,[10],1.03 µM (active)
same,AC50,[11],1.67 µM (active)
CC(/C=C/C=C/c1ccccc1)=N/NC(=O)CNc1ccccc1C,EC50,[4],> 89.3 µM (inactive)
C[C@@H]1CN([C@H](C)CO)S(=O)(=O)c2ccc(C#Cc3ccccc3F)cc2O[C@@H]1CN(C)C(=O)c1ccc2c(c1)OCO2,AC50,[21],4.28 µM (active)
same,AC50,[20],20.6 µM (active)
O=C(NCc1cccnc1)C1c2ccccc2C(=O)N1C1CCCCCC1 (stereo unspecified),Ki,[6],36.4 µM (inactive)
C[C@@H]1CN([C@@H](C)CO)S(=O)(=O)c2ccc(C#Cc3ccncc3)cc2O[C@@H]1CN(C)C(=O)C1CCOCC1,AC50,[21],0.466 µM (active)
CN1C(=O)c2cc(NC(=O)c3ccc(Cl)cc3)ccc2OC[C@@H]2O[C@H](CC(=O)NCc3cccc(F)c3)CC[C@@H]21,AC50,[20],26.6 µM (active)
N#C[C@H]1[C@H](c2ccccc2C2=CCCCC2)[C@@H](CO)N1S(=O)(=O)c1ccccc1,AC50,[8],7.94 µM (active)
same,AC50,[9],4.61 µM (active)
same,AC50,[10],7.76 µM (active)
same,AC50,[11],2.67 µM (active)
same,AC50,[12],13.9 µM (active)
CCC(=O)N(C)C[C@@H]1Oc2ncc(C#CCc3ccccc3)cc2C(=O)N([C@H](C)CO)C[C@@H]1C,AC50,[5],16.4 µM (active)
CCCCC(=O)NC(c1cccc([N+](=O)[O-])c1)c1ccc2cccnc2c1O (stereo unspecified),AC50,[15],5.92 µM (active)
same,AC50,[22],2.69 µM (active)
same,CC50,[23],1.23 µM (active)
same,AC50,[24],1 µM (active)
same,AC50,[25],2.41 µM (active)
same,AC50,[26],2.08 µM (active)
